Patent publication US10376553B2, “Pharmaceutical composition for preventing and treating chronic obstructive lung disease containing, as active ingredient, Magnoliae flos extract, fraction, or active fraction thereof” (KOREA RESEARCH INSTITUTE OF BIOSCIENCE AND BIOTECHNOLOGY, priority 2015, dated 2019)

Columns and labels:
[1] = test system: MUC5AC promoters; test: MUC5AC promoter luciferase reporter assay in H292 cells; format: cell-based, human; details: Table 7, MUC5AC promoter luciferase reporter, 10 μM, TNF-α 20 ng/mL
From the text: The degree of activation of luciferase was confirmed using a One-glow Luciferase Assay System (Promega).
As a result, as shown in the following Table 7, the activity of the MUC5AC promoters increased in the group treated with TNF-α.

[2] = test system: MUC5AC protein; test: Inhibition of MUC5AC protein production (immunoassay) by the compounds; format: cell-based, human; details: for Inhibition rate (%): MUC5AC secretion, TNF-α 20 ng/mL; for production of MUC5AC (in words): vs TNF-α treated group = 100%
Protocol: For immunoassay of the resulting MUC5AC, the supernatant (50 uL) recovered was dispensed on to a 96-well plate and dried in a thermostat set at 50° C. It was washed with PBS supplemented with 1% BSA and reacted with an MUC5AC antibody (abcam, USA) at room temperature for 1 hour. A secondary antibody was dispensed thereto for reaction for 1 hour. It was washed again and then reacted with a 3,3′,5,5′-tetramethylbenzidine peroxide solution for 20 minutes. After the reaction was stopped with a sulfuric acid solution, the degree of color development was measured at 450 nm.
As a result, as shown in the following Table 6, the amount of MUCSAC secretion increased in the group treated with TNF-α.

[3] = test system: TNF-α; test: TNF-α level in BALF of the COPD model (ELISA); format: in vivo, C57BL/6N mice; details: vs COPD-induced group; for TNF-α inhibition rate (%): BALF
Protocol: (§1) Cytokines were measured in the cell supernatant obtained in <Test Example 6-3> above by the following method. Specifically, the levels of IL-6 (R & D System, USA) and TNF-α (BD Bioscience, USA) in the separated BALF were measured by enzyme-linked immuno-sorbent assay (ELISA). Each cytokine analysis was carried out according to the manufacturer's test method.

[4] = test system: IL-6; test: IL-6 level in BALF of the COPD model (ELISA); format: in vivo, C57BL/6N mice; details: vs COPD-induced group; for IL-6 inhibition rate (%): BALF
Protocol: as §1

[5] = test system: reactive oxygen species; test: Production of active oxygen species in BALF of the COPD model (DCF-DA); format: in vivo, C57BL/6N mice; details: for Active oxygen inhibition rate (%) / production of active oxygen species (in words): vs COPD-induced group; for production of active oxygen species (in words): 15 and 30 mg/kg
Protocol: Production of active oxygen species in the bronchoalveolar lavage fluid obtained in <Test Example 6-3> above was confirmed by the following method.
Specifically, the separated BALF (200 μL) was treated to the final concentration of 20 μM of DCF-DA (dihydrodichlorofluorescein diacetate, Sigma-Aldrich, USA), followed by culturing for 30 minutes and measurement using Fluorescence (Molecular Device, USA). The inhibition rate was calculated by Equation 3 above.

[6] = test system: H292 cells; test: Cytotoxicity (CCK-8 cell viability) of the compounds of Magnoliae flos in H292 cells; format: cell-based, human; details: 24 h, vs 0.2% DMSO control = 100%
Protocol: Then, 10 μl of the CCK-8 solution (Dojindo Laboratories, Japan) was mixed with 90 μl of the medium, and 100 μl thereof was added per well. After incubation for a minimum of 30 minutes to a maximum of 4 hours, the absorbance was measured at 570 nm. The cell viability was calculated according to the following Equation 2 with a negative control group treated with 0.2% DMSO as a reference of 100%.
Cell viability=(Compound treated OD 570 nm value)×100/(Negative control group OD 570 nm value) [Equation 2]

[7] = test system: inflammatory cells in the bronchoalveolar lavage fluid; test: Inflammatory cells in bronchoalveolar lavage fluid of the COPD mouse model (cigarette smoke + LPS); format: in vivo, C57BL/6N mice; details: BALF, vs COPD-induced group
Protocol: Six-week-old male SPF (specific pathogen-free) C57BL/6N mice (22 to 24 g) were supplied by Koatech (Korea). These animals were fed with a sufficient amount of solid feed (no antibiotics, Samyang Feed Co.) and water until the day of the experiment. They were allowed to adapt for 1 week in a light-dark cycle environment at a temperature of 22±2° C. and a humidity of 55±15%, and then subjected to the experiment.
The animal model was exposed to cigarette smoke to induce chronic obstructive pulmonary disease. 3R4F Kentuchy Reference Cigarettes as standard cigarettes for use to generate cigarette smoke were supplied by University of California (USA). The standard cigarettes contain 9.4 mg of tar, 11 mg of total particle matter (TPM), and 12 mg of carbon monoxide per 1 cigarette. The standard cigarettes were used after harmonization for 48 hours to 72 hours at a temperature of 22±1° C. and a humidity of 60±2%. Further, Cigarette Smoke Generator manufactured by Korea BioLink (Korea) was used for exposure to cigarette smoke. Cigarette smoke was inhaled for 1 hour (8 pcs/hour) for 7 days from 1 hour after oral administration of a sample. 10 μg of LPS (lipopolysaccharide) in PBS 50 μL was injected intranasally to each mouse on the 4th day of the experiment after the mouse was anesthetized with zoletyl 1 hour before the exposure to cigarette smoke. The smoking condition was 8 puffs per 1 standard cigarette (volume: 45 mL, duration: 2 seconds, and interval: 1 time/min).
The active fraction of Magnoliae flos (15, 30 mg/kg) and roflumilast (10 mg/kg) as therapeutic substances were dissolved in 0.5% sodium carboxymethyl cellulose and were orally administered 1 hour before the exposure to cigarette smoke.
The experimental groups were divided into (i) normal control (NC) group; (ii) cigarette smoke+LPS exposure group (COPD); (iii) experimental group administered with roflumilast (ROF) (10 mg/kg, p.o) 1 hour before the exposure to cigarette smoke+LPS; and (iv) experimental group administered with the active fraction of Magnoliae flos (15, 30 mg/kg, p.o; Magnoliae flos 15 and Magnoliae flos 30) 1 hour before the exposure to cigarette smoke+LPS. […] Then, they were administered in the same manner as above.
The bronchial alveolar lavage fluid was separated from the animal model treated with the active fraction and the compounds of Magnoliae flos in <Test Example 6-2> above in the following manner, and the number of inflammatory cells was measured.
Specifically, a mouse sonde was inserted into the bronchial tube, a 1 mL syringe containing 0.7 mL of DPBS (Dulbecco's Phosphate-Buffered Saline) was connected thereto, and DPBS was injected into the lung. The injected DPBS was recovered, and this procedure was repeated twice. The bronchoalveolar lavage fluid separated by DPBS was centrifuged at 1,500 rpm for 15 minutes to make a cell pellet. The supernatant was stored frozen at −70° C. for cytokine analysis. Each cell obtained was suspended in DPBS, attached to a slide glass using a cytospin centrifuge, and Diff-Quik stained. The number of inflammatory cells in each sample was counted through microscopic examination, and the inhibition rate was calculated according to the following Equation 3.
Inhibition rate=(Value of COPD-induced group−value of target substance administered group)×100/(Value of COPD-induced group) [Equation 3]

SMILES	Inhibition rate (%) ([2]; 2.5 μM)	Inhibition rate (%) ([2]; 5 μM)	Inhibition rate (%) ([2]; 10 μM)	TNF-α inhibition rate (%) ([3]; 15 mg/kg p.o.)	TNF-α inhibition rate (%) ([3]; 30 mg/kg p.o.)	TNF-α secretion in the bronchoalveolar lavage fluid (in words) [3]	IL-6 inhibition rate (%) ([4]; 15 mg/kg p.o.)	IL-6 inhibition rate (%) ([4]; 30 mg/kg p.o.)	IL-6 in the bronchoalveolar lavage fluid (in words) [4]	Active oxygen inhibition rate (%) ([5]; 15 mg/kg p.o.)	Active oxygen inhibition rate (%) ([5]; 30 mg/kg p.o.)	production of active oxygen species (in words) [5]	Inhibition rate of inflammatory cell infiltration (%) Macrophage ([7]; 15 mg/kg p.o.) [%]	Inhibition rate of inflammatory cell infiltration (%) Neutrophil ([7]; 15 mg/kg p.o.) [%]	Inhibition rate of inflammatory cell infiltration (%) Total inflammatory cells ([7]; 15 mg/kg p.o.) [%]	Inhibition rate of inflammatory cell infiltration (%) Macrophage ([7]; 30 mg/kg p.o.) [%]	Inhibition rate of inflammatory cell infiltration (%) Neutrophil ([7]; 30 mg/kg p.o.) [%]	Inhibition rate of inflammatory cell infiltration (%) Total inflammatory cells ([7]; 30 mg/kg p.o.) [%]	increase in inflammatory cells (in words) [7]	rate of inhibiting reactive oxygen compared with ROF drug control group (in words) ([5]; 15 mg/kg)	further results
COc1ccc([C@H]2OC[C@H]3[C@@H]2CO[C@@H]3c2ccc(OC)c(OC)c2)cc1OC [Compound S1, dimethylpinoresinol]	8.64	26.36	30.2	25.0 ± 7.8	38.0 ± 4.1	concentration-dependent inhibition	56.2 ± 6.6	67.6 ± 6.6	concentration-dependent decrease	17.9 ± 5.1	34.7 ± 3.2	relatively higher inhibition rates in a manner depending on concentration	12.8 ± 10.4	45.9 ± 3.4	42.2 ± 2.5	40.0 ± 5.4	54.5 ± 3.4	54.3 ± 3.5	effectively inhibited	–	Inhibition rate (%) [1]: 55.74%; production of MUC5AC (in words) [2]: inhibited in a manner depending on the concentrations; production of MUC5AC (in words) ([2]; listed as Formula 2): inhibited the production of MUC5AC in a manner depending on concentration; Viability of H292 cells (%, average ± deviation) ([6]; 2.5 μM): 121.27 ± 2.04%; Viability of H292 cells (%, average ± deviation) ([6]; 5 μM): 121.61 ± 3.75%; Viability of H292 cells (%, average ± deviation) ([6]; 10 μM): 118.76 ± 1.96%
COc1ccc([C@H]2OC[C@H]3[C@@H]2CO[C@@H]3c2ccc3c(c2)OCO3)cc1OC [Compound S5, dimethoxyaschantin]	13.93	10.12	16.43	32.9 ± 4.8	39.1 ± 1.9	concentration-dependent inhibition	36.1 ± 5.5	48.8 ± 4.4	concentration-dependent decrease	31.3 ± 2.5	39.7 ± 3.5	relatively higher inhibition rates in a manner depending on concentration	28.3 ± 7.2	44.2 ± 4.1	33.0 ± 4.4	37.1 ± 7.1	53.2 ± 5.4	43.2 ± 5.4	–	–	–
COc1cc([C@H]2OC[C@H]3[C@@H]2CO[C@@H]3c2ccc3c(c2)OCO3)cc(OC)c1OC [Compound S6, aschantin]	0.15	4.19	1.2	39.8 ± 10.2	47.8 ± 4.7	concentration-dependent inhibition	59.3 ± 7.2	62.9 ± 6.0	concentration-dependent decrease	30.6 ± 7.6	33.5 ± 6.9	relatively higher inhibition rates in a manner depending on concentration	37.8 ± 5.3	50.7 ± 5.9	42.8 ± 2.4	26.0 ± 5.6	66.3 ± 5.9	43.7 ± 4.7	effectively inhibited	higher rates of inhibiting reactive oxygen than that of the drug control group treated with ROF	rate of inhibiting reactive oxygen compared with ROF drug control group (in words) ([5]; 30 mg/kg): higher rates of inhibiting reactive oxygen than that of the drug control group treated with ROF
COc1ccc([C@@H]2OC[C@H]3[C@@H]2CO[C@@H]3c2ccc3c(c2)OCO3)cc1OC [Compound S7, fargesin]	0.79	1.69	11.05	49.1 ± 2.6	34.1 ± 7.1	–	50.8 ± 17.0	31.4 ± 9.6	–	47.5 ± 5.2	39.6 ± 6.9	higher inhibition rate in the low dose groups	37.1 ± 2.8	51.7 ± 6.3	44.1 ± 3.7	34.8 ± 6.1	38.2 ± 5.4	34.1 ± 6.1	effectively inhibited	higher rates of inhibiting reactive oxygen than that of the drug control group treated with ROF	rate of inhibiting reactive oxygen compared with ROF drug control group (in words) ([5]; 30 mg/kg): higher rates of inhibiting reactive oxygen than that of the drug control group treated with ROF
